Consider six compounds from PMC2533354, “Highly specific inhibition of leukaemia virus membrane fusion by interaction of peptide antagonists with a conserved region of the coiled coil of envelope” (Retrovirology, 2008).

Values after ≈ are worked out from the molar mass of the structure shown. Where a SMILES comes first, the peptide text is derived from it.

Data set [1] in a line: Relative peptide solubility by laser nephelometry. The conditions noted are these: filtered PBS with 1.5 % DMSO, maximum solubility in aqueous solution, two-fold serial dilution from DMSO stock, 200 μl, 1 hr at room temperature, laser nephelometry (forward scattered light, NEPHELOstar), duplicate wells, in solution if reading up to 3-fold the DMSO control. In kind it is physicochemical. The method, then:
A two-fold serial dilution of peptide in DMSO was performed, and added in duplicate to 96-well microplates. Filtered PBS was added to give a total volume of 200 μl and a final DMSO concentration of 1.5 % in all wells. The plates were incubated at room temperature for 1 hr and the relative solubility of peptides was established by measuring forward scattered light using a NEPHELOstar laser-based microplate nephelometer (BMG LABTECH). Wells containing PBS and 1.5 % DMSO only were used as blanks. Data analysis was carried out using ActivityBase, and peptides giving readings up to and including 3-fold higher than the average reading for the DMSO control were considered to be in solution at the concentrations specified.

The next data set addresses T1, BLV envelope (Bovine leukemia virus, UniProt P51519).
T1 construct: A fragment encompassing the entire BLV envelope open reading frame; expressed in transfected cells; host or cells: HeLa (co-transfected with pRSV-Rev)
The experiment in a line: Syncytium interference assay, BLV envelope-expressing HeLa effector cells. It counts as cell-based.

The test system of data set [2] is virally expressed BLV envelope (BLV-infected FLK cells). The following applies: chronically BLV infected FLK effector cells + HeLa target cells; result in words (Figure 3C).
Experimental: (§1) Briefly, HeLa cells for use as effector cells were transfected with the envelope expression vector pHTE-1 or with equal amounts of pCMV-BLVenv-RRE and pRSV-Rev using the Genejuice™ transfection reagent (Novagen) in accordance with the manufacturer's instructions. 24 h later, 3 × 10^5 effector cells were added to 7 × 10^5 untransfected HeLa target cells in six-well dishes (Nunc). Where appropriate, the co-culture was incubated in the presence of peptides at the concentrations specified. To assess the ability of the peptides to inhibit fusion induced by virally expressed BLV envelope, 2 × 10^5 BLV-infected FLK cells were used as effectors and added to 8 × 10^5 uninfected HeLa cells. After incubation at 37°C for 16 h, cells were washed twice with PBS and fixed in PBS + 3% paraformaldehyde. Assays were performed in triplicate and the number of syncytia (defined as multinucleated cells with 4 or more nuclei) from 10 low-power fields (LPF) per replicate was scored by light microscopy; some assays were stained using Giemsa. A syncytium formation value of 100% is defined as the number of syncytia formed in the absence of peptide but in the presence of 1.5% DMSO.
A further data set has as its target T2, HTLV-1 envelope (Human T-cell leukemia virus 1, UniProt P03381).
T2 construct: expressed in transfected cells; host or cells: HeLa
In words: Syncytium interference assay, HTLV-1 envelope-expressing HeLa effector cells. It counts as cell-based. The following applies: concentrations up to 20 μM and above; result in words.

Where [3] appears, read: result in words, concentration not given (Figures 3B, 4A, 4C).
The mark [4] stands for this setting: up to 20 μM, result in words (Figure 4D).

T1 sequence (P51519 302-515): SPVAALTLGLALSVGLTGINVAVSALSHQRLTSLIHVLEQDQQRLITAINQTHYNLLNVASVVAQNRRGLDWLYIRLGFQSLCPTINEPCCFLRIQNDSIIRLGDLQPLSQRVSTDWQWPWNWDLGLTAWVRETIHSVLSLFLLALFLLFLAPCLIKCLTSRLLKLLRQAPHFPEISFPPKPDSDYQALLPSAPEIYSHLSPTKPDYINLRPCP
T2 sequence (P03381 313-488): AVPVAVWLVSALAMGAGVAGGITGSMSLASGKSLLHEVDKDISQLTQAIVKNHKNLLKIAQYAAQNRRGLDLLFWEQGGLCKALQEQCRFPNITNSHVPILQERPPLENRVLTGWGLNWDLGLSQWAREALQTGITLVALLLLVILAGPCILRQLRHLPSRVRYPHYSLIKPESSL
Experimental for HTLV-1 envelope: as §1

As usually defined, the kinetic solubility is the concentration staying in solution when a stock, usually in DMSO, is diluted into the medium. The compound `CC[C@H](C)[C@H](NC(=O)[C@H](CO)NC(=O)[C@@H](NC(=O)[C@H](Cc1c[nH]cn1)NC(=O)[C@H](CO)NC(=O)[C@H](CC(N)=O)NC(=O)[C@@H](NC(=O)[C@@H](NC(=O)[C@H](CC(N)=O)NC(=O)[C@H](CC(C)C)NC(=O)[C@H](Cc1ccccc1)NC(=O)[C@H](CS)NC(=O)[C@H](CS)NC(C)=O)[C@@H](C)CC)[C@@H](C)O)C(C)C)C(=O)N[C@@H](CC(C)C)C(=O)N[C@@H](CCC(N)=O)C(=O)N[C@@H](CCC(=O)O)C(=O)N[C@@H](CCCNC(=N)N)C(=O)N1CCC[C@H]1C(=O)N1CCC[C@H]1C(=O)N[C@@H](CC(C)C)C(=O)N[C@@H](CCC(=O)O)C(=O)N[C@@H](CC(N)=O)C(=O)N[C@@H](CCCNC(=N)N)C(=O)N[C@H](C(=O)N[C@@H](CC(C)C)C(=O)N[C@H](C(=O)NCC(=O)N[C@@H](Cc1c[nH]c2ccccc12)C(=O)NCC(=O)N[C@@H](CC(C)C)C(N)=O)[C@@H](C)O)C(C)C` [P^cr-400, reference compound] (Ac-CCFLNITNSHVSILQERPPLENRVLTGWGL-NH2) had a kinetic solubility at 1 h in data set [1] above 90 µM. Moreover, the “Inhibition of membrane fusion induced by BLV envelope” value on BLV envelope (concentrations up to 15 μM and above, result in words) is “failed to inhibit”. Also, the “Inhibition of membrane fusion induced by virally expressed BLV envelope” value in data set [2] is “did not block”.

In data set [1], `CC[C@H](C)[C@H](NC(=O)[C@H](CO)NC(=O)[C@@H](NC(=O)[C@H](Cc1c[nH]cn1)NC(=O)[C@H](CO)NC(=O)[C@H](CC(N)=O)NC(=O)[C@@H](NC(=O)[C@@H](NC(=O)[C@H](CC(N)=O)NC(=O)[C@H](C)NC(=O)[C@H](Cc1ccccc1)NC(=O)[C@H](CS)NC(=O)[C@H](CS)NC(C)=O)[C@@H](C)CC)[C@@H](C)O)C(C)C)C(=O)N[C@@H](C)C(=O)N[C@@H](CCC(N)=O)C(=O)N[C@@H](CCC(=O)O)C(=O)N[C@@H](CCCNC(=N)N)C(=O)N1CCC[C@H]1C(=O)N1CCC[C@H]1C(=O)N[C@@H](C)C(=O)N[C@@H](CCC(=O)O)C(=O)N[C@@H](CC(N)=O)C(=O)N[C@@H](CCCNC(=N)N)C(=O)N[C@H](C(=O)N[C@@H](C)C(=O)N[C@H](C(=O)NCC(=O)N[C@@H](Cc1c[nH]c2ccccc12)C(=O)NCC(=O)N[C@@H](C)C(N)=O)[C@@H](C)O)C(C)C` [P^cr-400 L/A, reference compound] (Ac-CCFANITNSHVSIAQERPPAENRVATGWGA-NH2) yielded a solubility (kinetic) at 1 h of 45 µM (≈ 146 µg/mL). The “Inhibition of BLV Env-induced membrane fusion” value at BLV envelope (setting [3]) is on record as “did not interfere”.

The compound `CC[C@H](C)[C@H](NC(=O)[C@H](CCCNC(=N)N)NC(=O)[C@H](CC(C)C)NC(=O)[C@H](Cc1ccccc1)NC(=O)[C@H](CS)NC(=O)[C@H](CS)NC(C)=O)C(=O)N[C@@H](CCC(N)=O)C(=O)N[C@@H](CC(N)=O)C(=O)N[C@@H](CC(=O)O)C(=O)N[C@@H](CO)C(=O)N[C@H](C(=O)N[C@H](C(=O)N[C@@H](CCCNC(=N)N)C(=O)N[C@@H](CC(C)C)C(=O)NCC(=O)N[C@@H](CC(=O)O)C(=O)N[C@@H](CC(C)C)C(=O)N[C@@H](CCC(N)=O)C(=O)N1CCC[C@H]1C(=O)N[C@@H](CC(C)C)C(N)=O)[C@@H](C)CC)[C@@H](C)CC` [P^BLV-ΔC] (Ac-CCFLRIQNDSIIRLGDLQPL-NH2) returned a solubility (kinetic) at 1 h in data set [1] above 90 µM. Moreover, the “Inhibition of BLV Env-induced membrane fusion” value at BLV envelope (setting [3]) was “lacked detectable inhibitory activity”.

In data set [1], `CC[C@H](C)[C@H](NC(=O)[C@H](CCCNC(=N)N)NC(=O)[C@H](CC(C)C)NC(=O)[C@H](Cc1ccccc1)NC(=O)[C@H](CS)NC(=O)[C@H](CS)NC(C)=O)C(=O)N[C@@H](CCC(N)=O)C(=O)N[C@@H](CC(N)=O)C(=O)N[C@@H](CC(=O)O)C(=O)N[C@@H](CO)C(=O)N[C@H](C(=O)N[C@H](C(=O)N[C@@H](CCCNC(=N)N)C(=O)N[C@@H](C)C(=O)NCC(=O)N[C@@H](CC(=O)O)C(=O)N[C@@H](CC(C)C)C(=O)N[C@@H](CCC(N)=O)C(=O)N1CCC[C@H]1C(=O)N[C@@H](C)C(=O)N[C@@H](CO)C(=O)N[C@@H](CCC(N)=O)C(=O)N[C@@H](CCCNC(=N)N)C(=O)N[C@H](C(=O)N[C@@H](CO)C(=O)N[C@H](C(=O)N[C@@H](CC(=O)O)C(=O)N[C@@H](Cc1c[nH]c2ccccc12)C(=O)N[C@@H](CCC(N)=O)C(N)=O)[C@@H](C)O)C(C)C)[C@@H](C)CC)[C@@H](C)CC` [P^BLV-L404/410A] (Ac-CCFLRIQNDSIIRAGDLQPASQRVSTDWQ-NH2) displayed a kinetic solubility at 1 h above 90 µM. The “Inhibition of BLV Env-induced membrane fusion” value on BLV envelope (setting [4]) is “failed to display any fusion-blocking activity”.

Compound `CC[C@H](C)[C@H](NC(=O)[C@H](CCCNC(=N)N)NC(=O)[C@H](C)NC(=O)[C@H](Cc1ccccc1)NC(=O)[C@H](CS)NC(=O)[C@H](CS)NC(C)=O)C(=O)N[C@@H](CCC(N)=O)C(=O)N[C@@H](CC(N)=O)C(=O)N[C@@H](CC(=O)O)C(=O)N[C@@H](CO)C(=O)N[C@H](C(=O)N[C@H](C(=O)N[C@@H](CCCNC(=N)N)C(=O)N[C@@H](C)C(=O)NCC(=O)N[C@@H](CC(=O)O)C(=O)N[C@@H](C)C(=O)N[C@@H](CCC(N)=O)C(=O)N1CCC[C@H]1C(=O)N[C@@H](C)C(=O)N[C@@H](CO)C(=O)N[C@@H](CCC(N)=O)C(=O)N[C@@H](CCCNC(=N)N)C(=O)N[C@H](C(=O)N[C@@H](CO)C(=O)N[C@H](C(=O)N[C@@H](CC(=O)O)C(=O)N[C@@H](Cc1c[nH]c2ccccc12)C(=O)N[C@@H](CCC(N)=O)C(N)=O)[C@@H](C)O)C(C)C)[C@@H](C)CC)[C@@H](C)CC` [P^BLV-L/A] (Ac-CCFARIQNDSIIRAGDAQPASQRVSTDWQ-NH2) displayed a solubility (kinetic) at 1 h in data set [1] of 45 µM (≈ 148 µg/mL). For the same compound, the “Inhibition of BLV Env-induced membrane fusion” value at BLV envelope (setting [4]) is given as “did not exhibit any discernible inhibition”.

`CC[C@H](C)[C@H](NC(=O)[C@H](CCCNC(=N)N)NC(=O)[C@H](CC(C)C)NC(=O)[C@H](Cc1ccccc1)NC(=O)[C@H](CS)NC(=O)[C@H](CS)NC(C)=O)C(=O)N[C@@H](CCC(N)=O)C(=O)N[C@@H](CC(N)=O)C(=O)N[C@@H](CC(=O)O)C(=O)N[C@@H](CO)C(=O)N[C@H](C(=O)N[C@H](C(=O)N[C@@H](CCCNC(=N)N)C(=O)N[C@@H](CC(C)C)C(=O)NCC(=O)N[C@@H](CC(=O)O)C(=O)N[C@@H](CC(C)C)C(=O)N[C@@H](CCC(N)=O)C(=O)N1CCC[C@H]1C(=O)N[C@@H](CC(C)C)C(=O)N[C@@H](CO)C(=O)N[C@@H](CCC(N)=O)C(=O)N[C@@H](CCCNC(=N)N)C(=O)N[C@H](C(=O)N[C@@H](CO)C(=O)N[C@H](C(=O)N[C@@H](CC(=O)O)C(=O)N[C@@H](Cc1c[nH]c2ccccc12)C(=O)N[C@@H](CCC(N)=O)C(N)=O)[C@@H](C)O)C(C)C)[C@@H](C)CC)[C@@H](C)CC` [P^BLV-391] (Ac-CCFLRIQNDSIIRLGDLQPLSQRVSTDWQ-NH2) displayed a kinetic solubility at 1 h in data set [1] above 90 µM. For the same compound, the “Inhibition of membrane fusion induced by HTLV-1 envelope” value at HTLV-1 envelope was “failed to inhibit”. Further, on BLV envelope (peptide at 20 μM, BLV envelope-expressing HeLa effectors (Figure 4B)), the “Block of syncytium formation” value is on record as above 95%. Also, the “Inhibition of membrane fusion induced by virally expressed BLV envelope” value in data set [2] is on record as “robustly antagonized”.
